Laboratory results as given in patent US7118895B2, “Process for producing aglycon by using diglycosidase and flavor-improved food containing the aglycon and converting agent to be used in the process” (Amano Enzyme Inc., priority 2000, dated 2006).

Tested on: Crude diglycosidase
Assay: Examination of substrate concentration in the conversion into isoflavone aglycons by diglycosidase using soybean materials
Assay type: biochemical, Penicillium multicolor IAM7153
Summary of the method: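 Soybean materials (roasted soy flour, soymilk, defatted soybean, concentrated soy protein) at 2–30% (w/v) in 20 mM acetate pH 4.0 were reacted with crude diglycosidase at 55° C with shaking; enzyme solution added was 1.88 AU/mL. Samples taken at 0, 1, 3 and 6 h were ethanol-extracted and analyzed by HPLC.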

O=c1c(-c2ccc(O)cc2)coc2cc(O)cc(O)c12 [genistein]
Decomposition efficiency of genistin family in defatted soybean (substrate concentration 2%, heat treatment of enzyme no, reaction time 0 h): 15.1 | Decomposition efficiency of genistin family in defatted soybean (substrate concentration 2%, heat treatment of enzyme no, reaction time 1 h): 68.6 | Decomposition efficiency of genistin family in defatted soybean (substrate concentration 2%, heat treatment of enzyme no, reaction time 3 h): 83.0 | Decomposition efficiency of genistin family in defatted soybean (substrate concentration 2%, heat treatment of enzyme no, reaction time 6 h): 88.6 | Decomposition efficiency of genistin family in defatted soybean (substrate concentration 2%, heat treatment of enzyme yes, reaction time 6 h): 18.0 | Decomposition efficiency of genistin family in defatted soybean (substrate concentration 5%, heat treatment of enzyme no, reaction time 0 h): 14.2 | Decomposition efficiency of genistin family in defatted soybean (substrate concentration 5%, heat treatment of enzyme no, reaction time 1 h): 61.2 | Decomposition efficiency of genistin family in defatted soybean (substrate concentration 5%, heat treatment of enzyme no, reaction time 3 h): 69.9 | Decomposition efficiency of genistin family in defatted soybean (substrate concentration 5%, heat treatment of enzyme no, reaction time 6 h): 80.7 | Decomposition efficiency of genistin family in defatted soybean (substrate concentration 5%, heat treatment of enzyme yes, reaction time 6 h): 15.4 | Decomposition efficiency of genistin family in defatted soybean (substrate concentration 10%, heat treatment of enzyme no, reaction time 0 h): 14.1 | Decomposition efficiency of genistin family in defatted soybean (substrate concentration 10%, heat treatment of enzyme no, reaction time 1 h): 57.2 | Decomposition efficiency of genistin family in defatted soybean (substrate concentration 10%, heat treatment of enzyme no, reaction time 3 h): 64.0 | Decomposition efficiency of genistin family in defatted soybean (substrate concentration 10%, heat treatment of enzyme no, reaction time 6 h): 70.3 | Decomposition efficiency of genistin family in defatted soybean (substrate concentration 10%, heat treatment of enzyme yes, reaction time 6 h): 14.5
